Measurements as given in ChEMBL document CHEMBL6182911, “From Diarylsulfides to Diarylamines: New Ebola Virus Entry Inhibitors with Improved Metabolic Stability” (J Med Chem, 2025).
Activity calls are given as the source filed them. No cut-off for these calls is given here.

Legend:
[1] = Cytotoxicity against African green monkey Vero E6 cells assessed as reduction in cell viability incubated for 24 hrs by CellTiter-Glo Luminescent Cell Viability Assay; format: toxicity, cell-based, Vero C1008; settings: chlorocebus sabaeus
Ebolavirus [2] = assay: Antiviral activity against VSV-G pseudotyped EBOV-GP Mayinga infected in African green monkey Vero E6 cells assessed as inhibition of viral infection preincubated with cells for 1 hr followed by viral infection and measured after 24 hrs by luciferase based luminometric analysis; format: functional, organism-based; settings: Orthoebolavirus, Vero C1008
[3] = tested on: Vesicular stomatitis virus; assay: Antiviral activity against VSV-G pseudotyped virus infected in African green monkey Vero E6 cells assessed as inhibition of viral infection at 10 uM preincubated with cells for 1 hr followed by viral infection and measured after 24 hrs by luciferase based luminometric analysis; format: functional, organism-based; settings: time 25.0 hrs
[4] = Selectivity index, ratio of CC50 for cytotoxicity against African green monkey Vero E6 cells to EC50 for antiviral activity against VSV-G pseudotyped EBOV-GP Mayinga infected in African green monkey Vero E6 cells; format: toxicity, cell-based; settings: read-out: Ratio CC50/EC50
[5] = Selectivity index, ratio of CC50 for cytotoxicity against African green monkey Vero E6 cells to EC50 for antiviral activity against replicative EBOV Mayinga variant infected in African green monkey Vero E6 cells; format: toxicity, cell-based; settings: read-out: Ratio CC50/EC50
Ebolavirus [6] = assay: Binding affinity to EBOV-GP assessed as appearance of STD signals of aromatic region of compound at ligand to protein concentration molar ratio of 100:1 by STD-NMR analysis
Ebolavirus [7] = assay: Binding affinity to EBOV-GP assessed as appearance of STD signals of aromatic region of compound at ligand to protein concentration molar ratio of 100:1 in presence of imipramine by STD-NMR analysis
Ebolavirus [8] = assay: Inhibition of cleaved EBOV-GP assessed as disruption of interaction between EBOV-GPcl and Flag-tagged human NPC1 domain C at 50 uM by ELISA
Ebolavirus [9] = assay: Antiviral activity against replicative EBOV Mayinga infected in African green monkey Vero E6 cells assessed as reduction in virus titer in cell culture supernatant incubated for 3 days by immunofocus assay; format: functional, organism-based

**Q.** With `O=C(CCNCCc1ccccc1)Nc1ccccc1Sc1cc(Cl)ccc1[N+](=O)[O-]` as the compound, how does the CC50 at 24 h [1] read?
**A.** The CC50 at 24 h was 250 µM.

**Q.** Which EC50 (Ebolavirus [2]) does the source give for `CCN(CC)CC(=O)NNc1ccccc1Sc1cc(Cl)ccc1[N+](=O)[O-]` here?
**A.** The EC50 was 4.02 µM.

**Q.** For `O=C(CN1CCCCC1)Nc1ccccc1Sc1cc(Cl)ccc1[N+](=O)[O-]`, which CC50 at 24 h [1] is on record?
**A.** Its CC50 at 24 h is 250 µM.

**Q.** Which EC50 (Ebolavirus [2]) does the source give for `O=C(CN1CCCC1)NNc1ccccc1Sc1cc(Cl)ccc1[N+](=O)[O-]` here?
**A.** Its EC50 is 2.9 µM.

**Q.** For `CCN(CC)CCC(=O)Nc1ccccc1Sc1cc(Cl)ccc1[N+](=O)[O-]`, which Activity [3] is on record?
**A.** Its Activity is “inactive”.

**Q.** With `O=C(CNCCC1CCN(Cc2ccccc2)CC1)Nc1ccccc1Nc1cc(Cl)ccc1[N+](=O)[O-]` as the compound, how does the selectivity ratio [4] read?
**A.** Its selectivity ratio is 4.1.

**Q.** And the Activity [3]?
**A.** Its Activity is “inactive”.

**Q.** And the selectivity ratio [5]?
**A.** The selectivity ratio was 2.3.

**Q.** What about the Activity (Ebolavirus [6]) of the same compound?
**A.** Its Activity is “Active”.

**Q.** What about the Activity (Ebolavirus [7]) of the same compound?
**A.** Its Activity is “inactive”.

**Q.** What about the inhibition (Ebolavirus [8]) of the same compound?
**A.** Its inhibition is “Active”.

**Q.** For `O=C(CNCc1ccccc1)Nc1ccccc1Sc1cc(Cl)ccc1[N+](=O)[O-]`, which CC50 at 24 h [1] is on record?
**A.** Its CC50 at 24 h is 250 µM.

**Q.** With `O=C(CCN1CCCC1)Nc1ccccc1Sc1cc(Cl)ccc1[N+](=O)[O-]` as the compound, how does the Activity [3] read?
**A.** Its Activity is “inactive”.

**Q.** What about the EC50 (Ebolavirus [9]) of the same compound?
**A.** Its EC50 is “Not_active”.

**Q.** What does the source list for `O=C(CN1CCCC1)Nc1ccccc1Sc1cc(Cl)ccc1[N+](=O)[O-]`?
**A.** CC50 at 24 h [1]: 250 µM; EC50 (Ebolavirus [9]): Not_active

**Q.** Which Activity [3] does the source give for `O=C(CNCCC1CCN(Cc2ccccc2)CC1)Nc1ccccc1Sc1cc(Cl)ccc1[N+](=O)[O-]` here?
**A.** The Activity was “inactive”.

**Q.** Which CC50 at 24 h [1] does the source give for `CCN(CC)CC(=O)Nc1ccccc1Sc1cc(Cl)ccc1[N+](=O)[O-]` here?
**A.** The CC50 at 24 h was 250 µM.

**Q.** For `NC(=O)c1nc(F)c[nH]c1=O`, which CC50 at 24 h [1] is on record?
**A.** Its CC50 at 24 h is > 1000 µM.

**Q.** And the selectivity ratio [5]?
**A.** The selectivity ratio was 14.9.

**Q.** For `CCN(CC)CCC(=O)Nc1ccccc1Nc1cc(Cl)ccc1[N+](=O)[O-]`, which Activity [3] is on record?
**A.** Its Activity is “inactive”.

**Q.** Which Activity [3] does the source give for `O=C(CCN1CCCC1)Nc1ccccc1Nc1cc(Cl)ccc1[N+](=O)[O-]` here?
**A.** The Activity was “inactive”.
